# Test results reported in US20200362302A1, “METHOD FOR PRODUCING CELL” (FUJIFILM Corporation, priority 2018, published 2020).
# Test system: human iPS cells
# Assay: treatment efficiency by flow cytometry (positive percentage of CD75)
# Format: cell-based
# Description: The culture and the treatment were performed in the same manner as in Example 1 except that the treatment was performed under conditions in which a concentration of PD0325901 was 0.3 to 1.0 μmol/L, and subculture was performed for about 2 weeks after day 9. The completion of the treatment in Example 1 was evaluated by a positive percentage of a cell surface marker CD75. The cultured human iPS cells were detached with TrypLE™ Select, and stained with Alexa Fluor 647 Mouse Anti-Human CD75 antibody. A positive percentage of CD75 was analyzed by a flow cytometer Attune NxT.
compound,measurement,setting,value
"O=C(NOC[C@H](O)CO)c1ccc(F)c(F)c1Nc1ccc(I)cc1F [PD0325901, N-[(2R)-2,3-dihydroxypropoxy]-3,4-difluoro-2-[(2-fluoro-4-iodophenyl)amino]-benzamide]",CD75,"any of the cell lines, PD0325901 within the range of 0.3 to 0.5 μmol/L",not positive
same,positive percentage of CD75,"three lines of human iPS cells, PD0325901 at 0.3 to 1.0 μmol/L",increase in positive percentage of CD75
